Data taken from patent publication US10098841B2, “Method of inducing a phase transition of a bilayer membrane vesicle” (Japan Science and Technology Agency, priority 2005, dated 2018).
In brackets after ≈: the same amount, converted by molar mass. Several values for one entry are separate records, joined by “and”; a condition that tells them apart may be missing. Equal entries are not always repeated.

Columns and labels:
[1] = Solubility in the phosphate buffer used in the examples; assay type: physicochemical; details: aqueous buffer, buffer 5 mM NaH2PO4, 0.15 M NaCl, pH 7.5, read-out: solubility against the buffer
Procedure: The solubility of the dihydric alcohol 1A against the buffer (5 mM NaH2PO4, 0.15 M NaCl, pH 7.5) used in the examples was about 10 mM.
The solubility of the dihydric alcohol 1B against the buffer (5 mM NaH2PO4, 0.15 M NaCl, pH 7.5) used in the examples was about 0.2 mM.

[2] = Membrane fusion experiment using MLV, change in fluorescence (F value, NBD-PE to Rh-PE energy transfer); details: for membrane fusion of MLV (in words): from F value over time
From the text: Examples of means for evaluating and observing a phase transition such as fusion of the membranes include observation by electron microscope, quantification of the produced pseudo-ceramide (for example, by mass spectrometry), and measurement of the change in fluorescence. In the case of measuring changes in fluorescence, a compound which causes a fluorescence energy transfer to another compound that present in the vicinity of the compound is introduced as a component of the bilayer membrane. Examples of such compounds include the combination of 1,2-dimyristyl-sn-glycero-3-phosphoethanolamine-N-(7-nitro-2-1,3-benzoxadiazol-4-yl) (NBD-PE) and 1,2-dimyristyl-sn-glycero-3-phosphoethanolamine-N-(lissamine rhodamine B sulfonyl) (Rh-PE). The former is the energy donor, and the latter is the energy acceptor. […] As for evaluating changes in the fluorescence, it is possible to use the fluorescence change F that is obtained by:
For example, when NBD-PE and Rh-PE are included in separate vesicles, the F value increases by fusion of the vesicles. To the contrary, when a vesicle including both NBD-PE and Rh-PE fuses with a vesicle including neither, the distance between the NBD-PE and Rh-PE increases so that the F value decreases.
First, 1 mL each of the MLV dispersions that contain a tertiary amine (C8 or C16) obtained in Example 1 were mixed at room temperature. A solution of 2-chloro-4,6-dimethoxy-1,3,5-triazin (CDMT) (150 mM or 300 mM) in methanol (21.7 μL) was added thereto, and allowed to stand at room temperature. Next, to the MLV dispersion obtained in Example 2, a solution of 4-(4,6-dimethoxy-1,3,5-triazin-2-yl)-4-methylmorpholium chloride (DMT-MM) (225 mM or 300 mM) in methanol (21.7 μL), which is a water-soluble dehydrating condensing agent, was added to prepare a mixture. As a control experiment, a mixture to which 21.7 μL of methanol was added instead of the CDMT solution was prepared.
The change in fluorescence over time of the prepared mixtures was measured with a fluorometer. The excitation wavelength was 470 nm. As mentioned above, the F value was used as the criterion for the change in fluorescence.

[3] = Change in particle size accompanying MLV fusion (DLS); details: MLV with C8-tertiary amine 0.2 equivalent, CDMT 50 equivalents
Procedure: The MLV dispersion prepared was separated into 2 mL portions, and 50 equivalents (21.7 μL) CDMT (300 mM in methanol) was added thereto. For the control, 21.7 μL of methanol was added. Two samples were prepared and the particle size after 12 hours was measured by dynamic light scattering (DLS).

[4] = Membrane fusion experiment using SUV (F value); details: SUV with C16-tertiary amine
Procedure: Sodium laurate (45.0 mM in methanol, 5.8 μL), the dihydric alcohol 1B (38.5 mM in chloroform, 6.8 μL), C16-tertiary amine (3.05 mM in chloroform, 17.0 μL), nonreduced egg yolk lecithin (13.0 mM in chloroform, 19.0 μL), and a fluorescent agent (for NBD-PE: 1.23 mM in chloroform, 10.6 μL; for Rh-PE: 4.19 mM in chloroform, 3.1 μL) were placed into a 20-mL eggplant-shaped flask, and the solvent was evaporated under reduced pressure using a rotary evaporator. The thin film formed on the inner well of the flask was further dried under reduced pressure using a vacuum pump (room temperature, 0.5 hours). Then, 4 mL of phosphate buffer (5 mM NaH2PO4/Na2HPO4, 0.15 M NaCl, pH 8.5) was added thereto, and ultrasonic waves were applied for 30 seconds using a bath-type ultrasonic wave generation device. Next, the mixture was stirred and shaken for 10 minutes with a vortex mixer at 100% strength. […]
Using the SUV dispersion containing NBD-PE and Rh-PE obtained in Example 6, the change in fluorescence over time was measured in the same way as in the membrane fusion experiment with MLV of Example 3. The F value was calculated from the intensity of the fluorescence peaks to evaluate SUV fusion.

[5] = SUV membrane fusion by fluorescence dilution method; details: CDMT 25 or 50 equivalents; SUV with and without fluorescent agent
Procedure: An SUV dispersion with a fluorescent agent and an SUV dispersion without a fluorescent agent, of the compositions shown in Table 5 were prepared according to the SUV preparation method described in Example 6.
First, 0.2 mL of the prepared SUV dispersion with a fluorescent agent and 1.8 mL of the SUV dispersion without a fluorescent agent were mixed at room temperature. Three samples were prepared for each SUV. To two of these samples 10.8 μL (25 equivalents) or 21.7 μL (50 equivalents) of CDMT (300 mM in methanol) was added respectively, and allowed to stand at room temperature. As a control experiment, 21.7 μL of methanol was added to the remaining sample, and also allowed to stand, and then the fluorescence was measured at a given time interval.
Unlike the mixing method of Example 7, in the case of the fluorescence dilution method of Example 8, the F value becomes smaller as fusion proceeds. […] It should be noted that in the graph of FIG. 5, it appears as if at initial state there is a difference between the control sample and the samples to which CDMT has been added.

[6] = Change in particle size accompanying SUV fusion (DLS); details: for Z average (average diameter): CDMT 50 equivalents; for number of SUVs fused, from change in particle size: about 3 hours
Procedure: SUV dispersions with the compositions shown in Table 6 were prepared in accordance with the SUV preparation method described in Example 6.
The prepared SUV dispersions were filtered through a 0.45-μm pore size filter and each was divided into two 2 mL samples, one of which was supplied with 21.7 μL (50 equivalents) of CDMT (300 mM in methanol) and the other supplied with 21.7 μL of methanol as a control experiment, and allowed to stand at room temperature. The particle size after three hours was measured by DLS.

[7] = Observation of SUV by transmission electron microscope; details: SUV with sodium laurate and C16-tertiary amine
Procedure: A SUV dispersion of the composition shown in Table 8 was prepared in accordance with the SUV preparation method described in Example 6.
To 200 μL of the prepared SUV dispersion, 4.3 μL of CDMT (300 mM in methanol) was added, and allowed to stand at room temperature. As a control experiment, 4.3 μL of methanol was added instead of CDMT, and allowed to stand at room temperature. Several drops of the SUV dispersion after standing were placed on a carrier, frozen with liquid nitrogen, and prepared specimens for electron microscopy (replicas) by a freeze fracturing method ordinarily performed by those skilled in the art (JEOL JFD-9010 was used). The specimens obtained were observed by TEM (JEOL JEM-1010) (acceleration voltage 100 kv). The arrows in the micrographs indicate the SUV.

[8] = Fusion experiment between active SUV and inactive SUV (fluorescence dilution); details: CDMT 35 equivalents; runs 2 and 3, one SUV inactive
Procedure: In accordance with the fluorescence dilution method described in Example 8, 0.2 mL of the prepared SUV dispersion with a fluorescent agent and 1.8 mL of the SUV dispersion without a fluorescent agent were mixed at room temperature. […] Then, 15.2 μL (4.55 μmol: 35 equivalents of the total fatty acid salt of run 1) of CDMT (300 mM in methanol) was added thereto, allowed to stand at room temperature, and the change in the F values over time was measured with a fluorometer.

[9] = Leaking of aqueous phase within SUV accompanying fusion (calcein); details: with fusion, CDMT 50 equivalents
Procedure: Accordingly, in this example, by utilizing the property of the compound, a fusion test was performed for liposomes in which (in the inner aqueous phase) calcein has been contained at a high concentration in advance.
The SUV was prepared according to the method described in Example 6. However, the calcein (75 mM) was added to a phosphate buffer (5 mM NaH2PO4/Na2HPO4, 0.15 M NaCl, pH 8), and ultrasonic wave treatment was performed to produce SUVs. The SUVs were separated by gel filter (Sephadex G-50, using the same phosphate buffer solution in the mobile phase) to remove the calcein present in the outside aqueous phase, giving a SUV dispersion.
CDMT (50 equivalents) was added to the obtained SUV dispersion, and allowed to stand at room temperature and the fluorescence (520 nm) was measured (FS) after a given time, and immediately after Triton X-100 (10%, 200 μL) was added to destroy the SUV, and then the fluorescence was measured again (FT). […] The rate of leakage was calculated by the following equation.
[formula] • F0: Fluorescence intensity at 0 hours • FS: Fluorescence intensity at each hour • FT: Fluorescence intensity after adding Triton X-100

## CCCCCCCCNCC(O)CO (stereo not drawn) [dihydric alcohol 1A, 3-octylamino-1,2-propanediol]
[1]
  solubility: ~10 mM (≈ 2030 µg/mL)

## COc1nc(OC)nc([N+]2(C)CCOCC2)n1.[Cl-] [DMT-MM, 4-(4,6-dimethoxy-1,3,5-triazin-2-yl)-4-methylmorpholium chloride]
[2]; DMT-MM 38 equivalents, MLV without tertiary amine, 36 hr
  Change in fluorescence (F value): 1.42
[2]; DMT-MM 50 equivalents, MLV without tertiary amine, 36 hr
  Change in fluorescence (F value): 1.64
[2]
  membrane fusion of MLV (in words): membrane fusion occurred extremely slowly

## CCCCCCCCCCCCNCC(O)CO (stereo not drawn) [dihydric alcohol 1B, 3-dodecylamino-1,2-propanediol]
[1]
  solubility: ~0.2 mM (≈ 51.9 µg/mL)

## COc1nc(Cl)nc(OC)n1 [CDMT, 2-chloro-4,6-dimethoxy-1,3,5-triazin]
[2]; CDMT 25 equivalents, C16 tertiary amine in MLV, 2 hr
  Change in fluorescence (F value): 1.64
[2]; CDMT 25 equivalents, C16 tertiary amine in MLV, 5 hr
  Change in fluorescence (F value): 8.10
[2]; CDMT 50 equivalents, C8 tertiary amine in MLV, 5 hr
  Change in fluorescence (F value): 2.22
[2]; CDMT 50 equivalents, C8 tertiary amine in MLV, 12 hr
  Change in fluorescence (F value): 5.40
[2]; CDMT 50 equivalents, C16 tertiary amine in MLV, 2 hr
  Change in fluorescence (F value): 4.41
[2]; CDMT 50 equivalents, C16 tertiary amine in MLV, 5 hr
  Change in fluorescence (F value): 10.4
[2]
  membrane fusion of MLV (in words): membrane fusion occurs
[3]; 0 hr
  Z average (average diameter): 235.2 nm and 232.4 nm
[3]; 12 hr
  Z average (average diameter): 280.3 nm and 278.2 nm
[4]
  SUV membrane fusion (F value, FIG. 4, in words): membrane fusion occurred
[5]
  change in fluorescence, fluorescence dilution method (FIG. 5, in words): a decrease in the fluorescence was found
[6]; SUV with lauric acid, 0 hr
  Z average (average diameter): 92.7 nm
[6]; SUV with lauric acid, 3 hr
  Z average (average diameter): 218.7 nm
[6]; SUV with oleic acid, 0 hr
  Z average (average diameter): 66.1 nm
[6]; SUV with oleic acid, 3 hr
  Z average (average diameter): 213.8 nm
[6]; laurate SUV
  number of SUVs fused, from change in particle size: 10 to 20
[6]; oleate SUV
  number of SUVs fused, from change in particle size: 30 to 40
[7]
  particle size by TEM after CDMT addition: greater than 1 μm
[8]
  change in F value, active/inactive SUV combinations (FIG. 9, in words): the F value significantly changes
[9]; 1 hr
  Rate of leakage: 6.5%
[9]; 2 hr
  Rate of leakage: 7.1%
[9]; 3 hr
  Rate of leakage: 8% and 8.3%
